Source: ChEMBL document CHEMBL1177797, “Discovery of 3,9-diazabicyclo[4.2.1]nonanes as potent dual orexin receptor antagonists with sleep-promoting activity in the rat” (Bioorg Med Chem Lett, 2010)
Activity calls are given as the source filed them. The rule behind the calls is not given here.

What was measured:
Orexin receptor type 2 [1] = biological target: T1, Orexin receptor type 2 (Homo sapiens, UniProt O43614); experiment: Antagonist activity at OX2R by FLIPR assay; format: functional
T1 sequence (O43614 whole entry): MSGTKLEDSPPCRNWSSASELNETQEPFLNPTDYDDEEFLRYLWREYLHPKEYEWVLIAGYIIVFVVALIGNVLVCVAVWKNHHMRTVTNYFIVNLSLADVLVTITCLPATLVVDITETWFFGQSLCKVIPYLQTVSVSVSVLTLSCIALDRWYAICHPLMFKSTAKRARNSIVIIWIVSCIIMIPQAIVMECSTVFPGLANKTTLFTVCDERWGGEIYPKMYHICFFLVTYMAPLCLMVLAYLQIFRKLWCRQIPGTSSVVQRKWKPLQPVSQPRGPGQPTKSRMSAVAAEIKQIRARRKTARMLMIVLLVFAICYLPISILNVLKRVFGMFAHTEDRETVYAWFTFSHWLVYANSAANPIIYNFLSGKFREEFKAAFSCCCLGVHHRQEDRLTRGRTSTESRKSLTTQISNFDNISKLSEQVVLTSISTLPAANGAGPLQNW

Orexin receptor type 2 [2] = biological target: T1, Orexin receptor type 2; experiment: Binding affinity to OX2R
[3] = biological target: T2, Orexin/Hypocretin receptor type 1 (Homo sapiens, UniProt O43613); experiment: Binding affinity to OX1R
T2 sequence (O43613 whole entry): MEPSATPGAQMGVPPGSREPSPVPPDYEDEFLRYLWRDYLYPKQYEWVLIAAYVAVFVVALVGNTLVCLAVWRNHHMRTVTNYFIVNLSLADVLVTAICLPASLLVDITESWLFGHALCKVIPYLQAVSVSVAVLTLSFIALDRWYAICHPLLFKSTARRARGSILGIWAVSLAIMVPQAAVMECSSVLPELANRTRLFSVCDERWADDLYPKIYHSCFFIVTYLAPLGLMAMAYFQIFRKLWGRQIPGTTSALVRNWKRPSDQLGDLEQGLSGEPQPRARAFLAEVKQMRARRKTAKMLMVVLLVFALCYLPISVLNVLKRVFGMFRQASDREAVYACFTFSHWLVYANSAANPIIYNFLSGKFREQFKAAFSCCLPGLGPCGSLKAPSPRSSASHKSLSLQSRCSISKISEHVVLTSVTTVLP

[4] = biological target: T2, Orexin/Hypocretin receptor type 1; experiment: Antagonist activity at OX1R by FLIPR assay; format: functional
Canis familiaris = experiment: AUC (0 to 24 hrs) in dog at 3 mg/kg, po and 0.125 mg/kg, iv; format: ADME, organism-based, Canis lupus familiaris, Plasma; details: in vivo
[5] = Clearance in dog at 3 mg/kg, po and 0.125 mg/kg, iv; format: ADME, organism-based, Canis lupus familiaris; details: in vivo
Rattus norvegicus [6] = experiment: AUC (0 to 24 hrs) in Sprague-Dawley rat at 10 mg/kg, po and 2 mg/kg, iv; format: ADME, organism-based, Plasma; details: in vivo
[7] = Drug level in Sprague-Dawley rat plasma at 10 mg/kg after 2 hrs; format: ADME, organism-based; parameters: dose 10 mg/kg; details: read-out: Drug uptake
[8] = Drug level in Sprague-Dawley rat plasma at 100 mg/kg after 2 hrs administered in PEG400; format: ADME, organism-based; parameters: dose 100 mg/kg; details: read-out: Drug uptake
[9] = Ratio of drug level in CSF to plasma in Sprague-Dawley rat at 30 mg/kg after 2 hrs; format: ADME, organism-based; parameters: dose 30 mg/kg
[10] = Clearance in Sprague-Dawley rat at 10 mg/kg, po and 2 mg/kg, iv; format: ADME, organism-based; details: in vivo
[11] = Ratio of drug level in CSF to plasma in Sprague-Dawley rat at 60 mg/kg after 1 hr; format: ADME, organism-based; parameters: dose 60 mg/kg
[12] = Drug level in Sprague-Dawley rat CSF at 10 mg/kg after 2 hrs; format: ADME, organism-based, Cerebrospinal fluid; parameters: dose 10 mg/kg; details: read-out: Drug uptake
[13] = Oral bioavailability in dog at 3 mg/kg; format: ADME, organism-based, Canis lupus familiaris; details: in vivo
[14] = Drug level in Sprague-Dawley rat plasma at 60 mg/kg after 1 hr; format: ADME, organism-based; parameters: dose 60 mg/kg; details: read-out: Drug uptake
[15] = Oral bioavailability in Sprague-Dawley rat at 10 mg/kg; format: ADME, organism-based; details: in vivo
[16] = Cmax in dog at 3 mg/kg, po and 0.125 mg/kg, iv; format: ADME, organism-based, Canis lupus familiaris; details: in vivo
[17] = Cmax in Sprague-Dawley rat at 10 mg/kg, po and 2 mg/kg, iv; format: ADME, organism-based; details: in vivo
[18] = Drug level in Sprague-Dawley rat plasma at 30 mg/kg after 2 hrs; format: ADME, organism-based; parameters: dose 30 mg/kg; details: read-out: Drug uptake
[19] = Drug level in Sprague-Dawley rat CSF at 30 mg/kg after 2 hrs; format: ADME, organism-based, Cerebrospinal fluid; parameters: dose 30 mg/kg; details: read-out: Drug uptake
[20] = Half life in Sprague-Dawley rat at 10 mg/kg, po and 2 mg/kg, iv; format: ADME, organism-based; details: in vivo
[21] = Half life in dog at 3 mg/kg, po and 0.125 mg/kg, iv; format: ADME, organism-based, Canis lupus familiaris; details: in vivo
[22] = Ratio of drug level in CSF to plasma in Sprague-Dawley rat at 10 mg/kg after 2 hrs; format: ADME, organism-based; parameters: dose 10 mg/kg
[23] = Drug level in Sprague-Dawley rat CSF at 60 mg/kg after 1 hr; format: ADME, organism-based, Cerebrospinal fluid; parameters: dose 60 mg/kg; details: read-out: Drug uptake
Rattus norvegicus [24] = experiment: Effect on sleep-awake pattern in rat assessed as increase in REM sleep at 60 mg/kg/day, po; format: functional, organism-based
Rattus norvegicus [25] = experiment: Effect on sleep-awake pattern in rat assessed as decrease in wakefulness at 60 mg/kg/day, po; format: functional, organism-based
Rattus norvegicus [26] = experiment: Effect on sleep-awake pattern in rat assessed as increase in […] at 60 mg/kg/day, po; format: functional, organism-based

Row | SMILES | IC50 (Orexin receptor type 2 [1]) [nM] | Ki (Orexin receptor type 2 [2]) [nM] | Ki [3] [nM] | IC50 [4] [nM] | further results
1 | Cc1ccc(-n2nccn2)c(C(=O)N2C[C@H]3CC[C@@H]2CCN3c2ncc3ccc(F)cc3n2)c1 | 140 | 2.2 | 0.6 | 125 | –
2 | Cc1ccc(-n2nccn2)c(C(=O)N2CC[C@@H]3CC[C@H]2CN3c2ncc3ccc(F)cc3n2)c1 | 1450 | 105 | 160 | 2300 | –
3 | Cc1ccc(-n2nccn2)c(C(=O)N2CC[C@H]3CC[C@@H]2CN3c2ncc3ccc(F)cc3n2)c1 | > 10000 | 590 | 345 | 1600 | –
4 | Cc1ccc(-n2nccn2)c(C(=O)N2CCCN(c3ncc4ccccc4n3)CC2)c1 | – | – | – | – | AUC (Canis familiaris): 0.44 µM·h; clearance [5]: 12 mL/min/kg; AUC (Rattus norvegicus [6]): 0.19 µM·h
5 | Cc1ccc(-n2nccn2)c(C(=O)N2CCC3CCC(C2)N3c2ncc3ccc(F)cc3n2)c1 (racemic) | 175 | 0.8 | 0.9 | 72 | –
6 | Cc1ccc(-n2nccn2)c(C(=O)N2C[C@@H]3CC[C@H]2CN(c2ncc4ccc(F)cc4n2)C3)c1 (single isomer, unassigned) | 790 | 62 | 2 | 46 | –
7 | Cc1ccc(-n2nccn2)c(C(=O)N2C[C@H]3CC[C@@H]2CN(c2ncc4ccc(F)cc4n2)C3)c1 (single isomer, unassigned) | 370 | 2.9 | 10 | 104 | –
8 | Cc1ccc(-n2nccn2)c(C(=O)N2C3CCC2CN(c2ncc4ccc(F)cc4n2)CC3)c1 (single isomer, unassigned; 8a) [listing 2 of 2 here] | – | – | – | – | Activity (Rattus norvegicus [24]): Active; Activity (Rattus norvegicus [25]): Active; Activity (Rattus norvegicus [26]): Active
9 | Cc1ccc(-n2nccn2)c(C(=O)N2C3CCC2CN(c2ncc4ccc(F)cc4n2)CC3)c1 (single isomer, unassigned; 8b) | 150 | 6.7 | 3.7 | 99 | –

Further lines, with some results ahead:

Row | IC50 (Orexin receptor type 2 [1]) [nM] | Ki (Orexin receptor type 2 [2]) [nM] | Ki [3] [nM] | IC50 [4] [nM] | SMILES | further results
10 | 740 | 14 | 7.6 | 800 | Cc1ccc(-n2nccn2)c(C(=O)N2C[C@@H]3CC[C@H]2CCN3c2ncc3ccc(F)cc3n2)c1 | –
11 | – | 0.6 | 0.4 | – | O=C(c1cc(Cl)ccc1-n1nccn1)N1C[C@@H]2C[C@H](C1)N(c1ncc3cc(F)ccc3n1)C2 | –
12 | 136 | 0.4 | 0.6 | 98 | Cc1ccc(-n2nccn2)c(C(=O)N2C3CCC2CN(c2ncc4ccc(F)cc4n2)CC3)c1 (single isomer, unassigned; 8a) [listing 1 of 2 here] | concentration at 2 h [7]: 1100 nM; concentration at 2 h [8]: 12500 nM; Kp at 2 h [9]: 0.007; clearance [10]: 23 mL/min/kg; Kp at 1 h [11]: 0.011; concentration at 2 h [12]: 3 nM; bioavailability [13]: 100%; concentration at 1 h [14]: 14600 nM; bioavailability [15]: 14%; Cmax [16]: 3400 nM; Cmax [17]: 570 nM; AUC (Canis familiaris): 14.1 µM·h; concentration at 2 h [18]: 3100 nM; clearance [5]: 3.6 mL/min/kg; concentration at 2 h [19]: 23 nM; half-life [20]: 1 h; half-life [21]: 1.8 h; AUC (Rattus norvegicus [6]): 1.57 µM·h; Kp at 2 h [22]: 0.004; concentration at 1 h [23]: 170 nM
